Measured values as given in patent US12521425B2, “Method of liver cancer treatment with safranal-based formulations” (priority 2019, dated 2026).

Key:
[1] = tested on: HepG2 cells; experiment: Colony formation assay; assay type: cell-based; details: HepG2, 30-100 μM for 24 hours
Description: Colony formation. HepG2 cell were seeded at a density of 1000 cells/6-well plate, and left to incubate for 24 hours to allow attachment before being treated with different concentrations of safranal (30, 50, 100 μM) for 24 hours. After which, culture media containing safranal was replaced by fresh growth media without safranal. Culture media was replenished every 3 days, until visible colonies were formed. Colonies were fixed with absolute methanol, then stained with 0.5% crystal violet. Colonies were then imaged and analyzed using ImageJ plugin ColonyArea. Results are represented as the percent of area occupied by colonies. To confirm, an absorption-based method was carried out to validate results obtained from ImageJ. Briefly, stained colonies were treated with 10% acetic acid solution to dissolve the crystal violet stain. After which, 100 μL of each triplicate sample was transferred to a 96-well plate (in triplicates), and absorbance was measured using an Epoch microplate spectrophotometer (BioTek). *p≤0.05, **p≤0.001, ***p≤0.0001

[2] = tested on: HepG2 cells; experiment: Caspase-3 and 7 activities (Caspase-Glo 3/7); assay type: cell-based; details: HepG2, 500 and 700 μM, 24 hours
Description: Caspase-3 and 7 activities. HepG2 were seeded at a density of 5000 cells/well in a 96-well plate, and were allowed to attach. After which, cells were treated with 500 and 700 μM of safranal for 24 hours. Caspase-3 and 7 activities were detected using Caspase-Glo® 3/7 Assay kit according to manufacturer instructions (Promega). Luminescent signal was detected using GloMax Discover System (Promega).

[3] = tested on: HepG2 cells; experiment: Cell cycle analysis by flow cytometry; assay type: cell-based; details: HepG2, 500 μM; for fraction of subG1 cells: DMSO control 0.9%
Description: Cell cycle analysis. HepG2 cells were seeded at density of 3×10^6 cells per flask in complete growth medium and were allowed to attach overnight. After which, cells were treated with 500 μM of safranal for different time intervals (6-48 hours). At the indicated time intervals, cells were collected by incubation with trypsin and washed twice with PBS. Collected cells were fixed in 70% ethanol, treated with RNase and stained with propidium iodide. Cell cycle distribution was analyzed by flow cytometry in a FACS scan (Becton Dickenson, Germany).

[4] = tested on: DEN-induced hepatic neoplasia; experiment: Western blotting of liver in DEN-induced HCC model; assay type: in vivo, male Wistar rats; details: liver of HCC rats
Description: A modified version of the protocol described by DePeralta et al. (2016) and Schiffer et al. (2005) was used here to establish the hepatocarcinogenesis model.
On the first 15 weeks, the control PBS group was treated with 1×PBS, whereas the experimental groups were given an intraperitoneal injection (IP) of 50 mg/kg of diethylnitrosoamine (DEN, Sigma Aldrich), a widely used chemical for inducing cancer, once a week. DEN was diluted with 1×PBS. Following a one-week break (week 16), the next three weeks (weeks 17 to 19) of treatment commenced. All drugs were administrated by oral gavage. All doses were chosen according to literature (Alsaied et al., 2014; Karafakioglu et al., 2017). For the HCC+sorafenib group, the drug (Carbosynth Limited) was administered at a dose of 10 mg/kg, five days a week. For the HCC+safranal group, the drug (Sigma Aldrich) was administered at a dose of 200 mg/kg, five days a week. For the HCC+safranal+sorafenib group, the drugs were administered at a dose of 200 mg/kg safranal+10 mg/kg sorafenib, five days a week. Both safranal and sorafenib were diluted with 1×PBS and drops of Tween 80. […] After 24-hours from last treatment, the rats were euthanized by mild diethyl ether and dissected in equal conditions. Blood and whole liver were collected.
One hundredth gm (10 mg) liver was homogenized using 200 μl RIPA buffer (Sigma Aldrich) mixed with 2 μl protease inhibitor and 2 μl phosphatase inhibitor (Sigma Aldrich), and centrifuged at 4° C., 15,000 rpm for 15 minutes. Whole cell lysate was taken and stored at −80° C. Protein concentration was measured by Pierce BCA Protein Assay Kit with Promega GloMax Discover. A total of 35 μg of protein was loaded on a sodium dodecyl sulfate-polyacrylamide gel electrophoresis gel. The gel was then transferred to polyvinylidene difluoride membrane. The membrane was then blocked with 5% BSA in TBST for one hour at room temperature. Membranes were incubated with anti-Proliferating Cell Nuclear Antigen (PCNA), anti-PolyADP-ribose Polymerase (PARP), anti-caspase-3 (Cell Signaling Technology Inc.), anti-caspase-9 (Novus Biologicals), anti-Bax, anti-Bcl-2 (Santa Cruz), anti-Cdk1, anti-Cyclin B1, anti-Cdc25B (Cell Signaling Technology Inc.) over night at 4° C., then with HRP conjugated secondary, anti-mouse or anti-rabbit, antibody (Cell Signaling Technology Inc.) for one hour at room temperature. All primary and secondary antibodies were diluted in 5% BSA in TBST. Blots were incubated in WesternSure PREMIUM Chemiluminescent Substrate for antibodies' detection. Signal was visualized using Bio-Rad ChemiDoc XRS+System. Band density and quantification was done using ImageJ (Amin et al., 2011). Total protein was used as a loading control and stained using SYPRO Ruby protein gel stain according to the protocol provided (Thermo Fisher Scientific) (Aldridge et al., 2008; Hu et al., 2016).

[5] = tested on: HepG2 cells; experiment: Western blotting of safranal-treated cells; assay type: cell-based
Description: Western blotting. HepG2 cells were seeded at a density of 1×10^6 cells/100 mm plate and allowed to attach before being treated with safranal. Cells were treated with 500 μM of safranal for different time intervals (6-48 hours) for time-dependent experiments. Whole cell lysates were separated using 10-15% SDS polyacrylamide gel electrophoresis. Proteins were transferred onto PVDF membranes prior to incubation with various primary antibodies p-histone H3, Cdc2, Cyclin B1, CDC25B, p21, p53, H2AX, p-H2AX, TOP1, TDP1, Cleaved PARP1, PCNA, HDAC1, HDAC2, Cleaved Caspase-9, Cleaved Caspase-8, Bax, Bcl-2, GRP78, ATF6, IRE1, PERK, p-eIF2S1, […], and CHOP. GAPDH, β-actin, and α-Tubulin were used as loading controls. Protein bands were detected using WesternSure Chemiluminescent Substrate (LI-COR) and C-DiGit blot scanner (LI-COR).

For CC1=C(C=O)C(C)(C)CC=C1 [safranal], the colony formation [1] was “inhibited colony formation of HepG2 cells in a dose-dependent manner”, the “activity of executioner caspases-3 and -7” value [2] was “increased” and the cell cycle distribution ([3]; 6 and 12 hours post treatment) was “G2/M phase arrest”. For the same molecule, the cell cycle distribution ([3]; 24 hours) was “S-phase arrest”, the “fraction of subG1 cells” value ([3]; after 24 hours) was 6.3% and the “fraction of subG1 cells” value ([3]; after 48 hours) was 26.2%. For the same molecule, the Bax/Bcl-2 ratio [4] was “favored the apoptotic effect”, the TDP1 levels [4] was “lower levels of TDP1” and the “expression of pro-caspases-9 & 3 and whole PARP” value ([4]; compared to HCC group) was “significantly decreased”. For the same molecule, the “expression of anti-apoptotic protein Bcl-2” value ([4]; compared to HCC groups) was “decreased”, the “expression of pro-apoptotic protein Bax” value ([4]; compared to HCC groups) was “increased” and the “Cdk1, cyclin B1, Cdc25B levels” value ([4]; comparing to HCC animals) was “significantly decreased their levels”. For the same molecule, the “PCNA (proliferation-related protein)” value ([4]; n=4) was “significantly downregulated PCNA”, the HDAC1 expression ([5]; HepG2, 500 μM) was “inhibited” and the HDAC2 expression ([5]; HepG2, 500 μM) was “remained unchanged”. The Cdc2 expression ([5]; HepG2, 500 μM, 6-48 hours) was “inhibit Cdc2 expression starting at 12 hours”, the H2AX expression ([5]; HepG2, 500 μM, 6-48 hours) was “remained unchanged” and the “expression of Cyclin B1 and CDC25B” value ([5]; HepG2, 500 μM, 6-48 hours) was “inhibiting expression of Cyclin B1 and CDC25B starting at 6 hours”. The “expression of phosphorylated histone H3” value ([5]; HepG2, 500 μM, 6-48 hours) was “inhibited dramatically”, the “p-H2AX (DNA damage marker)” value ([5]; HepG2, 500 μM, 6-48 hours) was “observed starting at 6 hours” and the “proliferation marker PCNA” value ([5]; HepG2, 500 μM, 6-48 hours) was “inhibition”. The “CHOP/DDIT3 and phosphorylated eIF2α” value ([5]; HepG2, 500 μM, up to 48 hours) was “upregulated”, the “expression of p21” value ([5]; HepG2, 500 μM, up to 48 hours) was “inhibited” and the “expressions of GRP78 and of p27” value ([5]; HepG2, 500 μM, up to 48 hours) was “induced”. The “main sensors of UPR, PERK, MEL and ATF6” value ([5]; HepG2, 500 μM, up to 48 hours) was “general upregulation trend”, the TDP1 level ([5]; HepG2, 6, 12, 24, 48 hours) was “lower levels” and the TOP1 level ([5]; HepG2, 6, 12, 24, 48 hours) was “higher levels”. For the same molecule, the caspase-8 cleavage ([5]; HepG2, time-based) was “cleaved starting at 24 hours”, the caspase-9 cleavage ([5]; HepG2, time-based) was “cleaved starting at 12 hours” and the “ratio of Bax to Bcl-2” value ([5]; HepG2, time-based) was “increased”.
